# Assay results from patent US20100173872A1, “Method and Composition for Treating Alzheimer's Disease and Dementias of Vascular Origin” (THE BOARD OF TRUSTEES OF THE UNIVERSITY OF ILLINOIS, priority 2002, published 2010).
# Bridge positions count the residues as written; N and C are the ends. Square brackets hold non-standard residues; d marks the D form. Ends that are not written are not given here. Peptide text beside a SMILES is read from it.
# Tests used:
# ET receptor = settings: cited from earlier work; for effect of pretreatment on systemic hemodynamic and regional circulatory effects of ET-1: BQ123 10 μg ICV, centrally administered ET-1; for effect on hemodynamics or regional blood circulation: specific ETB receptor agonists, separate experiments
# [1] = Effect of ET-1 infusion on brain blood flow in control and Aβ-treated rats; format: in vivo, rat; settings: 30 minutes infusion; Aβ-treated vs control rats
# Procedure: Studies in 3-month-old rats to determine the effect of Aβ on systemic hemodynamics and regional blood circulation were performed. […] The effect of ET-1 on the brain blood flow of control and Aβ treated rats also was determined (FIG. 4).
# Once infusion was stopped, a rebound increase in blood flow was observed. It can be inferred that Aβ increased the endogenous concentration of ET-1, leading to vasoconstriction. Accordingly, the administration of an ET-1 antagonist can cause a rebound increase in blood flow.
# [2] = test system: sympathetic nerve activity; settings: ET-1 90 ng; cited from earlier work
compound,measurement,setting,value
CC(C)NCC(O)COc1cccc2ccccc12 (stereo not drawn) [propranolol],effect of pretreatment on systemic hemodynamic and regional circulatory effects of ET-1,ET receptor,blocked
sarafotoxin 6c,effect on hemodynamics or regional blood circulation,ET receptor,did not affect
"ET-2: ETA receptor agonist (CSCSSWLDKECVYFCHLDIIW; disulfide 1-15, 3-11; ends not checked; UniProt P20800 49-69, looked up)",intensity of effects in comparison to ET-1 and SRT6b,ET receptor; ET-2 90 ng ICV,less intense
"CC(C)C[C@@H]1NC(=O)[C@@H](C(C)C)NC(=O)[C@@H]2CCCN2C(=O)[C@@H](CC(=O)O)NC(=O)[C@@H](Cc2c[nH]c3ccccc23)NC1=O [BQ123, cyclo(-D-Trp-D-Asp-Pro-D-Val-Leu-)] (cyclo(L[dW][dD]P[dV]))",effect of pretreatment on systemic hemodynamic and regional circulatory effects of ET-1,ET receptor,blocked
"ET-1: endothelin-1, a potent cerebrovascular vasoconstrictor peptide; ETA receptor agonist (CSCSSLMDKECVYFCHLDIIW; disulfide 1-15, 3-11; ends not checked; UniProt P05305 53-73, looked up)",effect of ET-1 infusion on brain blood flow,[1],more marked in Aβ-treated rats
same,cardiac output and stroke volume,ET receptor; 45 ng ICV,significant decreases
same,total peripheral resistance,ET receptor; 45 ng ICV,remained unchanged
same,sympathetic nerve activity,[2],significantly decreased
ET-3: specific ETB receptor agonist,effect on hemodynamics or regional blood circulation,ET receptor,did not affect
